# Values of other authors, collected in patent publication US20080175905A1, “ESTROGEN/SERM AND ESTROGEN/PROGESTIN BI-LAYER TABLETS” (Wyeth, priority 2006, published 2008).
# Tests used:
# [1] = system: ovariectomized rat model of osteopenia
# [2] = system: MCF-7 cell line (human breast cancer cell line); details: MCF-7 human breast cancer cell line
# [3] = system: uterine response; details: preclinical models of uterine stimulation
structure (smiles),measurement,setting,value
"Cc1c(-c2ccc(O)cc2)n(Cc2ccc(OCCN3CCCCCC3)cc2)c2ccc(O)cc12 [bazedoxifene acetate, 1-[4-(2-azepan-1-yl-ethoxy)-benzyl]-2-(4-hydroxy-phenyl)-3-methyl-1H-indol-5-ol acetic acid]",preventing bone loss,[1],estrogen agonist-like effect
same,reducing cholesterol,[1],estrogen agonist-like effect
same,estrogen antagonist behaviour in MCF-7 cell line,[2],behaves as an estrogen antagonist
same,stimulation of uterine response,[3],little or no stimulation of uterine response
